From US20060234960A1, “Methods and compositions for increasing the safety and efficacy of albumin-binding drugs” (priority 2005, published 2006)
pIC50: −log10 of the molar value.

Legend:
[1] = test system: human MDA-MB-435S breast carcinoma cell line; assay: Cytotoxicity for breast cancer cells (MDA-MB-435S), XTT; assay type: cell-based; conditions: for ability to kill breast cancer cells in the presence of Salus (301): FIGS. 9-13, with vs without Salus agent
Method: To further validate the concept in vitro studies using human breast cell carcinoma line and clinically approved blood concentrations of both clofibrate (301) and 10-hydroxycamptothecin were performed. FIG. 9 graphs the results GI 50 below. […] Additionally at clinically approved concentrations of both drugs in the presence of blood concentrations of human serum albumin, without Salus, approximately 33% of the cells were surviving at the end of the test vs. approximately 2%.
(§1) We have decided to use the human MRC-5 lung fibroblast cell line to test IC50 of 10-hydroxycamptothecin (10-HC) in the absence and presence of Salus™ 301. The ED50 values were determined with human MDA-MB-435S breast carcinoma cell line.
Cytotoxicity of DRUG for Breast Cancer Cells (MDA-MB-435S)
• 1. Count number of cells in flask. The final concentration of cells in each well should be between 5000-40000 cells/well (100,000-800,000 cells/ml). Dilute cells to proper concentration using Leibovitz's L-15 supplemented with 10% FBS and 0.1% insulin. Add 100 μl of cells into the microplate using repeating pipette. Be sure to vortex tube before adding to plate. Allow plate to incubate for 24 hours at 37° C. (Note: wells A1-H1, A1-H11 will contain only medium for evaporation purposes. Well A2 will contain no cells, only medium and will be used in experiment.) • Medium: Leibovitz's L-15 medium. • 2. Albumin: • Make 60 mg/ml in HSA (900 mg HSA+13.3 ml medium). Use Sigma HSA A-8763 • Make 5 ml of 60 mg/ml HSA with 2 mM 301 (2.33 mg 301 for 5.4 ml HSA). • Make 1 ml of 2 mM 301 in medium (0.53 mg in 1.23 ml medium). Dilute 200 μl in 200 μl medium to make 1 mM 301. • Make DRUG stock in DMSO Stock molarity=1000× conc. of highest test sample (ex. if 2 μM is needed, then stock needs to be 2 mM.) This will vary with each drug based on dosage of drug. For Cancer Cells, the highest concentration should be 1-2 times greater than the dosage for the drug. • 3. Make the test concentrations in advance of testing (5-24 hours prior to testing): The test concentrations will be made at double the concentration, 100 μl will be added into the 100 μl of the cells, making the final concentrations the same as those shown on the microplate chart. Change medium in plate (using the L-15 supplemented with 10% FBS and 0.1% insulin prior to loading test concentrations. • 100% cells: 100 μl of medium • medium: 100 μl of medium • 0.5 mM 301: add 100 μl of 1 mM 301 made in medium • 0.5 mM 301 with HSA: add 100 μl of 1 mM 301 with 30 mg/ml HSA • 1 mM 301: add 100 μl of 2 mM 301 made in medium • 1 mM 301 with HSA: add 100 μl of 2 mM 301 with 30 mg/ml HSA • 30 mg/ml HSA: add 100 μl of 60 mg/ml HSA made in medium (2 wells) • Dosage of DRUG: make a 1:500 dilution, using medium as the diluent. Make 2-fold serial dilutions into 300 μl of medium (600 μl total volume). Be sure to make dilutions before adding into wells. • 30×HSA & Dosage DRUG: Follow same serial dilution procedure as above with the DRUG, but the diluent should be medium +60 mg/ml HSA • 30×HSA, 0.5 mM 301 & DRUG: Follow same serial dilution procedure as above with the DRUG, but the diluent should be medium +60 mg/ml HSA with 1 mM 301 • 30×HSA, 1 mM 301 & 2 μM DRUG: Follow same serial dilution procedure as above with the DRUG, but the diluent should be medium +60 mg/ml HSA with 2 mM 301. • Allow these to incubate at 37° C. overnight. After the microplate has been incubating for 24 hours, add the above test concentrations into the appropriate well (see Chart for microplate information). Allow plate to incubate an additional 48 hours. After 48 Hours: • 4. Under sterile hood, reconstitute the XTT vial with 5 ml of medium. • 5. Remove all liquid from wells. Wash with medium, remove, then fill wells with 200 μl of fresh medium. • 6. Add 40 μl of XTT to all wells. • 7. Allow wells to incubate 2 hours. • 8. Read the plate in the microplate reader using a 655 nm reading as a reference wavelength. The read at 450 nm. Subtract the 655 nm reading from the 450 reading. […]

human serum albumin [2] = target: T1, human serum albumin (Homo sapiens, UniProt P02768); conditions: Topotecan alone, comparison for Camptothecin with Salus agent; cited from earlier work
[3] = whole human blood; cited from earlier work
[4] = murine vs human blood; cited from earlier work
brain cancer = conditions: cited from earlier work
human serum albumin [5] = target: T1, human serum albumin; assay: X-ray structure of human serum albumin complexes (binding site); conditions: X-ray crystallography
human serum albumin [6] = target: T1, human serum albumin; conditions: carboxylate vs lactone form; cited from earlier work
[7] = test system: human cancer xenografts lines; conditions: immunodeficient (nude) mice; cited from earlier work
human serum albumin [8] = target: T1, human serum albumin
Source text: Salus™ Drug Combinatorial Agents were identified using the CADEX knowledge base.

[9] = test system: human MRC-5 lung fibroblast cell line; assay: IC50 in human MRC-5 lung fibroblast cell line (in vitro toxicity); assay type: cell-based; conditions: best case scenario
Source text: Therapeutic index is defined as the ratio of the median lethal dose (LD50) to the median effective dose (ED50). […] While animal tests are at best only about 65 percent predictive of human acute toxicity, a combination of four cell tests can determine of a substance is dangerous to humans with better than 80 percent precision.
as §1

T1 sequence (P02768 25-609): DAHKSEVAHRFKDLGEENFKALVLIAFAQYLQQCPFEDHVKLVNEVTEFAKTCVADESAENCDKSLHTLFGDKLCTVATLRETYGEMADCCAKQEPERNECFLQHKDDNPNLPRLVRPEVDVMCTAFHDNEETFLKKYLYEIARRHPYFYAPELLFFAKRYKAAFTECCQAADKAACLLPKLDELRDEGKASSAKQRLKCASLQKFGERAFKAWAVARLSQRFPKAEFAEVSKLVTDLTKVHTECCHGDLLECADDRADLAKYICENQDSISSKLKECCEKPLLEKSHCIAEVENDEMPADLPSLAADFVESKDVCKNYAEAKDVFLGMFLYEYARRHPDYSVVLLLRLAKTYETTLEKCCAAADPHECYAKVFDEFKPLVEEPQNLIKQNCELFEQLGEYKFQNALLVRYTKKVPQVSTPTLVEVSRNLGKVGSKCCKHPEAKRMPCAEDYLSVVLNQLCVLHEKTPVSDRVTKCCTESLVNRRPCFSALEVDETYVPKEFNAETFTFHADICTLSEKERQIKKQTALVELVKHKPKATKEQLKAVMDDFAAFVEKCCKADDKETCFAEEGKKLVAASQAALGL

Q: Which “ability to kill breast cancer cells in the presence of Salus (301)” value (shortened to “ability to kill breast cancer cells”) [1] does the source give for `CC[C@@]1(O)C(=O)OCc2c1cc1n(c2=O)Cc2cc3c(CN(C)C)c(O)ccc3nc2-1` [Topotecan] here?
A: The value was “improvement”.

Q: What about the “level of active lactone form (comparison value)” value (human serum albumin [2]) of the same compound?
A: Its value is 12%.

Q: And the “drug remaining in the lactone form at equilibrium” value (shortened to “drug remaining in the lactone form”) [3]?
A: Its value is 11.9%.

Q: For `CC[C@@]1(O)C(=O)OCc2c1cc1n(c2=O)Cc2cc3c(N)cccc3nc2-1` [9-aminocamptothecin], which “drug remaining in the lactone form” value [3] is on record?
A: Its value is 0.5%.

Q: What about the “lactone levels in murine blood relative to human blood” value [4] of the same compound?
A: Its value is “approximately 100 fold”.

Q: What about the efficacy of therapy (brain cancer; 99 brain cancer patients, intravenous) of the same compound?
A: The efficacy of therapy was “grossly ineffective”.

Q: And the “drug in the carboxylate form” value (brain cancer; patients treated intravenously, stated as likelihood)?
A: Its value is 99.5%.

Q: With `COc1cccc2c1C(=O)c1c(O)c3c(c(O)c1C2=O)C[C@@](O)(C(=O)CO)C[C@@H]3O[C@H]1C[C@H](N)[C@H](O)[C@H](C)O1` [Doxorubicin] as the compound, how does the “ability to kill breast cancer cells” value [1] read?
A: The value was “improvement”.

Q: With `CC[C@@]1(O)C(=O)OCc2c1cc1n(c2=O)Cc2cc3ccccc3nc2-1` [Camptothecin] as the compound, how does the “binding location on human serum albumin” value (human serum albumin [5]) read?
A: Its value is “distinct pocket within IB subdomain”.

Q: What about the “drug remaining in the lactone form” value [3] of the same compound?
A: The value was 5.3%.

Q: What about the “enhancement in affinity for HSA of carboxylate form over lactone form” value (human serum albumin [6]) of the same compound?
A: The value was 150 fold.

Q: And the “number of human cancer xenografts lines in which effective” value [7]?
A: The value was “more than 13”.

Q: Which “increase of active lactone form with the selected Salus agent” value (human serum albumin [8]) does the source give for `CC[C@@]1(O)C(=O)OCc2c1cc1n(c2=O)Cc2cc3c([N+](=O)[O-])cccc3nc2-1` [9-nitro-Camptothecin] here?
A: Its value is “Equally dramatic results”.

Q: Which “drug remaining in the lactone form” value [3] does the source give for `CCc1c2c(nc3ccc(O)cc13)-c1cc3c(c(=O)n1C2)COC(=O)[C@]3(O)CC` [SN-38] here?
A: The value was 19.5%.

Q: With `COc1cccc2c1C(=O)c1c(O)c3c(c(O)c1C2=O)C[C@@](O)(C(=O)CO)C[C@@H]3O[C@H]1C[C@H](N)[C@@H](O)[C@H](C)O1` [Epirubicin] as the compound, how does the “ability to kill breast cancer cells” value [1] read?
A: The value was “improvement”.

Q: Which results are given for `CC[C@@]1(O)C(=O)OCc2c1cc1n(c2=O)Cc2cc3cc(O)ccc3nc2-1` [10-HC, 10-hydroxycamptothecin]?
A: increase of active lactone form with the selected Salus agent (human serum albumin [8]): Equally dramatic results; ability to kill breast cancer cells in the presence of Salus (301) [1]: improvement; cells surviving at the end of the test ([1]; with Salus (clofibrate, 301), clinically approved concentrations of both drugs, blood concentrations of human serum albumin): approximately 2%; improvement in the GI 50 values ([1]; with clofibrate (301) vs without, blood concentrations of human serum albumin): approximately 16 fold; cells surviving at the end of the test ([1]; without Salus, clinically approved concentration, blood concentrations of human serum albumin): approximately 33%; pIC50 ([9]; with 0.5 mM 301): 5.22; pIC50 ([9]; with 1.0 mM 301): 5.48; pIC50 ([9]; without 301): 5.17

Q: With `COc1cc([C@@H]2c3cc4c(cc3[C@@H](O[C@@H]3O[C@@H]5CO[C@@H](c6cccs6)O[C@H]5[C@H](O)[C@H]3O)[C@H]3COC(=O)[C@H]23)OCO4)cc(OC)c1O` [Teniposide] as the compound, how does the “ability to kill breast cancer cells” value [1] read?
A: The value was “improvement”.
